# Read-outs that look alike come from different tables or passages of the source.
# What was measured:
# influenza A virus = experiment: Influenza virus-like particle entry assay in MDCK cells; format: cell-based; conditions: three concentrations, bafilomycin 100 nM
# HIV-1 IIIB (X4) [1] = experiment: HIV-1 acute infection of PHA-activated PBMC, p24 ELISA, IIIB strain; format: cell-based; conditions: for effect on X4 HIV-1 replication (in words): p24 day 7, concentrations tested up to 30 μM for the six compounds
# HIV-1 BaL (R5) [2] = experiment: HIV-1 fusion assay, PM1-BaL donor and TZM-bl target cells; format: cell-based; conditions: PM1-BaL donor, TZM-bl target, 2.5% FCS
# HIV-1 BaL (R5) [3] = experiment: HIV-1 acute infection of PHA-activated PBMC, p24 ELISA, BaL strain; format: cell-based; conditions: for effect on R5 HIV-1 replication (in words): p24 day 7, concentrations tested up to 30 μM for the six compounds
# HIV-1 IIIB (X4) [4] = format: cell-based
# PBMC = experiment: MTT cytotoxicity assay on PBMC; format: cell-based, human; conditions: infected PBMC
# Experimental: PBMC and TZM-bl viability was measured by the MTT [3-(4,5- dimethylthiazol-2-yl)-2,5-diphenyl tetrazolium bromide; Sigma] assay. Cells were seeded in 96-well plates in three replicates and were incubated for four (TZM-bl) or six (PBMC) days with different concentrations of the compounds or DMSO alone at 0.2% as control. Then 10μl of complete medium containing MTT (0.5 mg/ml) was added to each well. After 24h incubation at 37°C, the supernatant was removed and 200μl of ethanol was added to each well to solubilize the formazan crystals. After vigorous shaking, absorbance was measured in a microplate reader at 490 nm.
# CXCR4 = CXCR4 (Homo sapiens, UniProt P61073); experiment: Flow cytometry competition with anti CXCR4 moAbs; format: binding; conditions: PM1 cells; ND-4043 30, 10, 3 μM; AMD3100 3, 0.3, 0.03 μM
# CXCR4, sequence (P61073 whole entry): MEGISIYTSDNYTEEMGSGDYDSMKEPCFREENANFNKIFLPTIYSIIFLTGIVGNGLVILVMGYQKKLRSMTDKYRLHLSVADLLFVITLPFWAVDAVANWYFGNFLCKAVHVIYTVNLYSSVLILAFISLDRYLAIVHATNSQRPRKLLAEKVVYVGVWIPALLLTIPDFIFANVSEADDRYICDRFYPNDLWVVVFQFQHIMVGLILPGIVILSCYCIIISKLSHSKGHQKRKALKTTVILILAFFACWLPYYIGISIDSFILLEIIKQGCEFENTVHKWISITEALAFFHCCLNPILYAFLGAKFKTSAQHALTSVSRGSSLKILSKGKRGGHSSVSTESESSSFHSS
# [5] = IIIB (X4), infected PBMC, p24 day 7
# [6] = BaL (R5), infected PBMC, p24 day 7
molecule,measurement,setting,value
CO/C1=C\C(C)=C\[C@@H](C)[C@@H](O)[C@@H](C)C/C(C)=C/C=C/[C@H](OC)[C@@H]([C@@H](C)[C@@H](O)[C@H](C)[C@@]2(O)C[C@@H](O)[C@H](C)[C@@H](C(C)C)O2)OC1=O [bafilomycin A1],effect on influenza A virus entry,influenza A virus,inhibited viral entry significantly
Maraviroc,effect on X4 HIV-1 replication (in words),HIV-1 IIIB (X4) [1]; PBMC,no effect
same,effect on R5-mediated fusion (in words),HIV-1 BaL (R5) [2],selectively blocked entry
same,concentration inhibiting R5 HIV-1 replication,"HIV-1 BaL (R5) [3]; PBMC, p24 day 7, ten fold dilutions, complete blockade for maraviroc",0.1 µM
same,activity relative to ND-4043 on R5 inhibition,HIV-1 BaL (R5) [3]; side-by-side comparison,approximately 100 fold
"Cn1cc(NC(=O)c2cc(NC(=O)c3cc(NC=O)cn3C)cn2C)cc1C(=O)NCCC(=N)N [compound 4044, distamycin]",effect on X4-mediated fusion (in words),"HIV-1 IIIB (X4) [4]; SupT1-IIIB donor, TZM-bl target, 2.5% FCS",did not affect
same,IC50,HIV-1 IIIB (X4) [1]; [5],> 30 µM
same,IC75,HIV-1 IIIB (X4) [1]; [5],>30 µM
same,IC90,HIV-1 IIIB (X4) [1]; [5],> 30 µM
same,effect on X4 HIV-1 replication (in words),HIV-1 IIIB (X4) [1]; PBMC,not effective
same,effect on R5-mediated fusion (in words),HIV-1 BaL (R5) [2],did not affect
same,CC50,PBMC; table section BaL (R5),25 µM
same,CC50,PBMC; table section IIIB (X4),30 µM
same,IC50,HIV-1 BaL (R5) [3]; [6],> 30 µM
same,IC75,HIV-1 BaL (R5) [3]; [6],>30 µM
same,IC90,HIV-1 BaL (R5) [3]; [6],> 30 µM
same,effect on R5 HIV-1 replication (in words),HIV-1 BaL (R5) [3]; PBMC,not effective
c1cc(CN2CCCNCCNCCCNCC2)ccc1CN1CCCNCCNCCCNCC1 [AMD3100],effect on X4-mediated fusion (in words),HIV-1 IIIB (X4) [4],selectively blocked entry
same,concentration inhibiting X4 HIV-1 replication,"HIV-1 IIIB (X4) [1]; PBMC, p24 day 7, ten fold dilutions, complete inhibition for AMD3100",0.01 µM
same,activity relative to ND-4043 on X4 inhibition,HIV-1 IIIB (X4) [1]; side-by-side comparison,approximately 100 fold
same,effect on binding of four anti-CXCR4 moAbs,CXCR4,inhibited binding of the four moAbs in a concentration-dependent manner
same,effect on R5 HIV-1 replication (in words),HIV-1 BaL (R5) [3]; PBMC,no effect

# From PMC4399250, “Characterization of HIV-1 entry inhibitors with broad activity against R5 and X4 viral strains” (Journal of Translational Medicine, 2015)
